# According to patent US12331044B2, “Inhibitors of histone deacetylase useful for the treatment or prevention of HIV infection” (Merck Sharp & Dohme LLC, priority 2018, dated 2025):
# Where two headings read alike, the source gives them in different places.
# Columns and labels:
# human HDAC2 = human HDAC2 (Homo sapiens (Human), UniProt Q92769); test: HDAC2 inhibition assay (modified FLUOR DE LYS, 384-well); type: biochemical; conditions: […] enzyme, 40 μM substrate BML-KI104, 3 h pre-incubation; read-out: HDAC2 IC50
# human HDAC8 = human HDAC8 (Homo sapiens (Human), UniProt Q9BY41); test: HDAC8 inhibition assay (modified FLUOR DE LYS, 384-well); type: biochemical; conditions: […] enzyme, 200 μM substrate BML-KI178, 3 h pre-incubation; read-out: HDAC8 IC50
# human HDAC1 = human HDAC1 (Homo sapiens (Human), UniProt Q13547)
# [1] = biological target: human HDAC3/SMRT heterodimer (Homo sapiens (Human), UniProt O15379)
# HDAC6 = HDAC6 (Homo sapiens (Human), UniProt Q9UBN7)
# KARN cells (Jurkat 2C4) = test: cells; conditions: Homo sapiens
# Method: KARN Assay Cell Maintenance
# KARN cells (Jurkat 2C4) were licensed from the laboratory of Dr. John Karn, Case Western Reserve University, School of Medicine. […] An atmosphere of 5% CO2 and 90% humidity was used for all culture work.
# These flasks were returned to the incubator.
# The cells were gently resuspended in assay media (30 ml) and pelleted again. […] The cells were counted using the ViCell (Beckman Coulter) and diluted as necessary. […] The plates were covered and returned to the incubator prior to compound addition.
# The reference compounds, DMSO and SAHA were then added to the compound plate. […] The final high concentration for SAHA and the test compounds in the assays was 40 μM. The final DMSO concentration in all wells was 0.4%. The minimal induction reference compound used was DMSO and the maximal induction reference compound used was SAHA (2 μM final concentration in the assay).
# Day 3: The luciferase detection reagent was prepared by transferring the contents of one bottle of Steady-Glo buffer to one bottle of Steady-Glo aubstrate (Steady-Glo Luciferase Assay System, Promega, catalog number E2520), followed by gently mixing until the substrate was thoroughly dissolved and the solution was equilibrated to room temperature. […] The Steady-Glo Reagent was added to the plates (30 μl/well), which were then covered with a black lid and incubated for 10 minutes at room temperature. The plates were then read for luminescence on an Envision (Perkin Elmer) using the ultrasensitive mode (US LUM), 0.1 counts per second and 384-well aperture. Luminescence counts in the DMSO reference wells were considered as 0% induction, while those in the 2 μM SAHA reference wells were considered as 100% induction. Dose response curves were plotted as test compound concentration (X-axis) vs. percent activation (Y-axis) using a 4-parameter fit based on the Levenberg-Marquardt algorithm.
# [2] = read-out: Karn EC50 nM 0.1% NHS, 0.1% normal human serum, luciferase induction, 2 μM SAHA = 100%
# [3] = read-out: Karn EC50 nM 5% NHS, 5% normal human serum, luciferase induction, 2 μM SAHA = 100%
# Chain of human HDAC8 (Q9BY41 whole entry): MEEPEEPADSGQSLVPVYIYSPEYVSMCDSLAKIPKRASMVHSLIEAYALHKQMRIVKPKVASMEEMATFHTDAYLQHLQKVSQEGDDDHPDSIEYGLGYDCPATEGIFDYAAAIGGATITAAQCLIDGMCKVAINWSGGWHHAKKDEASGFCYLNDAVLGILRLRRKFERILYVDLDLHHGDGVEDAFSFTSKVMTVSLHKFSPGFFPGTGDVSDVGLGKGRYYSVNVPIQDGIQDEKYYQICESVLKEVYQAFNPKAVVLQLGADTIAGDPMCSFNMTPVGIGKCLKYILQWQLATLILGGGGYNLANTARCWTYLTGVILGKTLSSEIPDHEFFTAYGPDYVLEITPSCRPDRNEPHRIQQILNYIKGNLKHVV
# Chain of human HDAC1 (Q13547 whole entry): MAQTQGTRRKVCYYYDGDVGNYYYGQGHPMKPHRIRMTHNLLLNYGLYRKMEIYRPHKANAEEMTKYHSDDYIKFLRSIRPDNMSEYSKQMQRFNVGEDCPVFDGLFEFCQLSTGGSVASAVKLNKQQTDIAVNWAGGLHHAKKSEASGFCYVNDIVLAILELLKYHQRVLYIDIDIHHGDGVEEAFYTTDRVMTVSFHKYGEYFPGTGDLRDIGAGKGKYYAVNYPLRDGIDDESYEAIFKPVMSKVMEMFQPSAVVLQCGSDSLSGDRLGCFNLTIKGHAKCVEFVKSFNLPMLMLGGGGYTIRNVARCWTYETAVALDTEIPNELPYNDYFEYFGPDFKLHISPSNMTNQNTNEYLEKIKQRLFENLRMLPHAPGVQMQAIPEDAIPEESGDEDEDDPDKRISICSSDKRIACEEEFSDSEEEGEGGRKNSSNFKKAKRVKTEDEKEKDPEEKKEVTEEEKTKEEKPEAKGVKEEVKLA
# Chain of human HDAC3/SMRT heterodimer (O15379 whole entry): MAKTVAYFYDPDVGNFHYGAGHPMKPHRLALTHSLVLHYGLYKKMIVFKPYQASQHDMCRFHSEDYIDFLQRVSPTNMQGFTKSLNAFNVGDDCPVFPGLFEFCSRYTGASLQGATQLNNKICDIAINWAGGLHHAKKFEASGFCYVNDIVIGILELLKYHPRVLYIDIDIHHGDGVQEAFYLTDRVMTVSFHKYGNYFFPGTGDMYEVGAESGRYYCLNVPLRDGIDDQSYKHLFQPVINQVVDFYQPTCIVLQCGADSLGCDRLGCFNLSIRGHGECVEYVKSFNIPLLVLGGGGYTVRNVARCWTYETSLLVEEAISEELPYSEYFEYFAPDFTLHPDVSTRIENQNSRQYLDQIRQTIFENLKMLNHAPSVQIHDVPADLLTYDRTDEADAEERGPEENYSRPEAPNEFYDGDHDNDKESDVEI
# Chain of human HDAC3/SMRT heterodimer (Q9Y618 1-899 partner): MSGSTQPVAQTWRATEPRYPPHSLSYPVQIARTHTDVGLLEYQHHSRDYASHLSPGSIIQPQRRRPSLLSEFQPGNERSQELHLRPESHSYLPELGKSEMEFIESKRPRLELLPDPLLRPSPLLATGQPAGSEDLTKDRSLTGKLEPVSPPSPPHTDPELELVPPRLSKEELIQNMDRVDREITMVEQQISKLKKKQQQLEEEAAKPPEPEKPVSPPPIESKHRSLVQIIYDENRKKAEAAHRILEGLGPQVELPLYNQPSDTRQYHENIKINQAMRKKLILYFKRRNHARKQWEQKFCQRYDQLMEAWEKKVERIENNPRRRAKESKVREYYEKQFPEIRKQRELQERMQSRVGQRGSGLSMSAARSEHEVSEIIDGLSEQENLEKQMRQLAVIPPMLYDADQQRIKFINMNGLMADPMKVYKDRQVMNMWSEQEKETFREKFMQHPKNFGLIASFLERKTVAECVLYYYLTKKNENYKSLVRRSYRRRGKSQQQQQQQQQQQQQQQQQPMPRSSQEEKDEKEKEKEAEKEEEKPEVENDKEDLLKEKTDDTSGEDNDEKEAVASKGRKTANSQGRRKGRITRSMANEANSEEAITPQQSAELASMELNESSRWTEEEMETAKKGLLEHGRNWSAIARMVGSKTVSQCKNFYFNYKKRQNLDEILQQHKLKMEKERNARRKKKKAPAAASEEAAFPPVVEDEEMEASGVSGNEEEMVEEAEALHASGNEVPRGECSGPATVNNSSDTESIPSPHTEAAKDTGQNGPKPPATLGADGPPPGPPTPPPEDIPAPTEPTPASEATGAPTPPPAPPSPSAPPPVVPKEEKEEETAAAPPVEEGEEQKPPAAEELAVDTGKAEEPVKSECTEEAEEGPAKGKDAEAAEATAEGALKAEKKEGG
# Chain of HDAC6 (Q9UBN7 whole entry): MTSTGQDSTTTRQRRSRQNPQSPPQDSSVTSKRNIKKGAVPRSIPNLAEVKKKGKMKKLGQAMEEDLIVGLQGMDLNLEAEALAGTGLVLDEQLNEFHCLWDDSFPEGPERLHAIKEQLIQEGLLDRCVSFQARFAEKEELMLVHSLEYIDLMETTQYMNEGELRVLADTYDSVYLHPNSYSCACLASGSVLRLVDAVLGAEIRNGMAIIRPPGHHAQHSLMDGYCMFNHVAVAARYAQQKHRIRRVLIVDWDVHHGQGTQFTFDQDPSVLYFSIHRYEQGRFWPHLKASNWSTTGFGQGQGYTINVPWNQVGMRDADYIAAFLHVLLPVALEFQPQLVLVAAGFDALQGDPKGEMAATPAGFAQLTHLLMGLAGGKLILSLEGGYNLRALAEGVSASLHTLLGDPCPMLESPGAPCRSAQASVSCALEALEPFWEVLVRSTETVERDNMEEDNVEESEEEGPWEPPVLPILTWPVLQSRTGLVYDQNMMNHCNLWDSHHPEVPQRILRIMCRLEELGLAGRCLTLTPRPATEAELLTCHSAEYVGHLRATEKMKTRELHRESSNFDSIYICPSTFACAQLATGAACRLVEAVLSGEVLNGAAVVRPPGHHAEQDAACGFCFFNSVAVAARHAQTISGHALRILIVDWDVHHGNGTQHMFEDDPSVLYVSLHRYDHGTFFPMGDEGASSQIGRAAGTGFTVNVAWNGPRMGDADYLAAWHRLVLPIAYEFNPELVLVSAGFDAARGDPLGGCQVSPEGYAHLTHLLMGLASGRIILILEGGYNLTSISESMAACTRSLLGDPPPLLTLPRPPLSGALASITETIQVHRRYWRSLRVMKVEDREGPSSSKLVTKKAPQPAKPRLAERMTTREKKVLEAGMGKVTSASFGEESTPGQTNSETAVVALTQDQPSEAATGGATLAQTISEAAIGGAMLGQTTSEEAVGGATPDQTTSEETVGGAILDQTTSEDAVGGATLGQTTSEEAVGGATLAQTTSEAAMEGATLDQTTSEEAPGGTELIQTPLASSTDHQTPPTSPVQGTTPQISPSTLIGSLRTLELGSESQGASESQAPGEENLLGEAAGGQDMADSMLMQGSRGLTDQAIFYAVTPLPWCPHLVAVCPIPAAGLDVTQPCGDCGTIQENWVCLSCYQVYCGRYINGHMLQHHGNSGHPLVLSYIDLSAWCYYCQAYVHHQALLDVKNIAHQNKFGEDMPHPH
# Chain of human HDAC2 (Q92769 whole entry): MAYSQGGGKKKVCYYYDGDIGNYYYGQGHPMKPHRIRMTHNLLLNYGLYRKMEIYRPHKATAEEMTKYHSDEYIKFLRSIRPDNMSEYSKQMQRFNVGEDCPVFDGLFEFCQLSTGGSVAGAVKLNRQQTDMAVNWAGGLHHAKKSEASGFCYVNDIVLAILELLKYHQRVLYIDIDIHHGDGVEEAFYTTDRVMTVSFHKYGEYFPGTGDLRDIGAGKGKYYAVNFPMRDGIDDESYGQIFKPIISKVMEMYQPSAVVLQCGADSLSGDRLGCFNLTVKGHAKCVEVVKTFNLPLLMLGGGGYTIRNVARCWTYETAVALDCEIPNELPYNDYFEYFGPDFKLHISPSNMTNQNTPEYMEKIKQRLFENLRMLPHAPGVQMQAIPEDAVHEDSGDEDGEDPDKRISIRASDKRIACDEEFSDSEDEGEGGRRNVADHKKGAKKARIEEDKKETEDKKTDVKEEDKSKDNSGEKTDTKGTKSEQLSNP
SMILES,IC50 (human HDAC2) [nM],IC50 (human HDAC8) [nM],IC50 (human HDAC1) [nM],IC50 [1] [nM],IC50 (HDAC6) [nM],EC50 (KARN cells (Jurkat 2C4); [2]) [nM],EC50 (KARN cells (Jurkat 2C4); [3]) [nM]
COc1nc2ccccc2cc1-c1c[nH]c([C@H](CCCCCC(=O)c2ccon2)NC(=O)C2CCN(C)CC2)n1 [Example 40],1.8,3.3,1.5,1.5,2000,15,58
COc1nc2ccccc2cc1-c1cnc([C@H](CCCCCC(=O)c2ncco2)NC(=O)CN2CCC2)[nH]1 [Example 51],2.3,31,0.38,0.66,690,11,56
"COc1cc2nc(C)ccc2cc1-c1cnc([C@H](CCCCCC(=O)c2ncco2)NC(=O)[C@H]2CC23CCN(C)CC3)o1 [Example 113, (S)-N-((S)-1-(5-(7-methoxy-2-methylquinolin-6-yl)oxazol-2-yl)-7-(oxazol-2-yl)-7-oxoheptyl)-6-methyl-6-azaspiro[2.5]octane-1-carboxamide]",2.5,180,0.41,0.58,200,18,12
"COc1cc(O[C@H]2C[C@H](OC)C2)cc(-c2cnc([C@@H](N)CCCCCC(=O)c3ncco3)[nH]2)c1F [Example 144, (7S)-7-amino-7-(5-{2-fluoro-3-methoxy-5-[(trans-3-methoxycyclobutyl)oxy]phenyl}-1H-imidazol-2-yl)-1-(1,3-oxazol-2-yl)heptan-1-one]",39,210,7,6.4,> 900,650,870
"COc1cc2nc(C)ccc2cc1-c1cnc([C@H](CCCCCC(=O)c2ncco2)NC(=O)CN2CCOCC2=O)[nH]1 [Example 158, N-[(1S)-1-[5-(7-methoxy-2-methylquinolin-6-yl)-1H-imidazol-2-yl]-7-(1,3-oxazol-2-yl)-7-oxoheptyl]-2-(3-oxomorpholin-4-yl)acetamide]",5.6,48,1.1,1.5,590,210,210
"COc1cc2nc(C)ccc2cc1-c1cnc([C@H](CCCCCC(=O)c2ncco2)NC(=O)c2cc3n(n2)CCS(=O)(=O)C3)[nH]1 [Example 165, N-[(1S)-1-[5-(7-methoxy-2-methylquinolin-6-yl)-1H-imidazol-2-yl]-7-(1,3-oxazol-2-yl)-7-oxoheptyl]-6,7-dihydro-4H-pyrazolo[5,1-c][1,4]thiazine-2-carboxamide 5,5-dioxide]",7.2,41,2.3,0.46,> 900,370,760
"CCn1cc(-c2ccc3nc(C)ccc3c2)nc1[C@@H](N)CCCCCC(=O)c1ncco1 [Example 30, (S)-7-amino-7-(1-ethyl-4-(2-methylquinolin-6-yl)-1H-imidazol-2-yl)-1-(oxazol-2-yl)heptan-1-one]",230,21000,49,48,38800,2500,4000
"N[C@@H](CCCCCC(=O)c1ncco1)c1ncc(-c2cc(C(F)(F)F)ccc2F)[nH]1 [Example 137, (7S)-7-amino-7-{5-[2-fluoro-5-(trifluoromethyl)phenyl]-1H-imidazol-2-yl}-1-(1,3-oxazol-2-yl)heptan-1-one]",240,> 900,61,45,> 900,–,–
"N[C@@H](CCCCCC(=O)c1ncco1)c1ncc(-c2cccc(F)c2F)[nH]1 [Example 136, (7S)-7-amino-7-[5-(2,3-difluorophenyl)-1H-imidazol-2-yl]-1-(1,3-oxazol-2-yl)heptan-1-one]",380,> 900,110,100,> 900,–,–
